Measurements taken from patent US20230398130A1, “METHODS AND COMPOSITIONS FOR DIFFERENTIATING STEM CELLS” (Massachusetts Institute of Technology, priority 2020, published 2023).

Key:
ISC-enriched organoids [1] = assay: Primary screen, 384-well 2.5-D organoid differentiation (ENR+CD, 6 days): basal lysozyme secretion (LYZ.NS); type: cell-based, murine; details: primary screen; for Dose.FC.LYZ.NS: ENR+CD 6 days, FC vs plate median; for Z.LYZ.NS: standard z score of FC
Source text: (§1) High-throughput screening.

ISC-enriched organoids [2] = assay: Primary screen, 384-well 2.5-D organoid differentiation (ENR+CD, 6 days): carbachol-induced lysozyme secretion (LYZ.S); type: cell-based, murine; details: primary screen, ENR+CD 6 days, FC vs plate median
Source text: as §1

ISC-enriched organoids [3] = assay: Primary screen, 384-well 2.5-D organoid differentiation (ENR+CD, 6 days, Target Selective Inhibitor Library, vs whole-plate median): ATP (CellTiter-Glo 3D, CTG); details: primary screen; for Dose.FC.CTG: ENR+CD 6 days, FC vs plate median; for Z.CTG: standard z score of FC

Row | Compound | Dose.FC.LYZ.NS (ISC-enriched organoids [1]; dose 0.08 uM) [log 2 fold change] | Z.LYZ.NS (ISC-enriched organoids [1]; dose 0.08 uM) | Dose.FC.LYZ.NS (ISC-enriched organoids [1]; dose 0.40 uM) [log 2 fold change] | Z.LYZ.NS (ISC-enriched organoids [1]; dose 0.40 uM) | Dose.FC.LYZ.NS (ISC-enriched organoids [1]; dose 2.00 uM) [log 2 fold change] | Z.LYZ.NS (ISC-enriched organoids [1]; dose 2.00 uM) | Dose.FC.LYZ.NS (ISC-enriched organoids [1]; dose 10.00 uM) [log 2 fold change] | Z.LYZ.NS (ISC-enriched organoids [1]; dose 10.00 uM) | Dose.FC.LYZ.S (ISC-enriched organoids [2]; dose 0.08 uM) [log 2 fold change] | Dose.FC.LYZ.S (ISC-enriched organoids [2]; dose 0.40 uM) [log 2 fold change] | Dose.FC.LYZ.S (ISC-enriched organoids [2]; dose 2.00 uM) [log 2 fold change] | Dose.FC.LYZ.S (ISC-enriched organoids [2]; dose 10.00 uM) [log 2 fold change] | Dose.FC.CTG (ISC-enriched organoids [3]; dose 0.08 uM) [log 2 fold change] | Z.CTG (ISC-enriched organoids [3]; dose 0.08 uM) | Dose.FC.CTG (ISC-enriched organoids [3]; dose 0.40 uM) [log 2 fold change] | Z.CTG (ISC-enriched organoids [3]; dose 0.40 uM) | Dose.FC.CTG (ISC-enriched organoids [3]; dose 2.00 uM) [log 2 fold change] | Z.CTG (ISC-enriched organoids [3]; dose 2.00 uM) | Dose.FC.CTG (ISC-enriched organoids [3]; dose 10.00 uM) [log 2 fold change] | Z.CTG (ISC-enriched organoids [3]; dose 10.00 uM)
1 | COc1cc(F)c(C(C)C)cc1-c1ccc(C(F)(F)F)cc1CN1C(=O)O[C@H](c2cc(C(F)(F)F)cc(C(F)(F)F)c2)[C@@H]1C [Anacetrapib (MK-0859)] | 0.013 | 0.112 | 0.007 | 0.060 | −0.015 | −0.129 | −0.036 | −0.314 | 0.051 | −0.002 | −0.046 | −0.036 | −0.090 | −0.214 | 0.035 | 0.084 | −0.094 | −0.225 | 0.031 | 0.075
2 | O=C1C(=O)N(Cc2ccc(Cl)c(Cl)c2)c2ccccc21 [Apoptosis Activator 2] | 0.149 | 1.302 | 0.033 | 0.290 | −0.006 | −0.049 | −0.199 | −1.734 | 0.132 | 0.073 | −0.009 | −0.252 | 0.304 | 0.725 | 0.262 | 0.626 | 0.082 | 0.195 | −0.158 | −0.378
3 | O=C(O)c1cccc(-c2noc(-c3ccccc3F)n2)c1 [Ataluren (PTC124)] | 0.029 | 0.253 | 0.042 | 0.362 | 0.131 | 1.140 | 0.009 | 0.077 | 0.051 | 0.034 | 0.058 | 0.005 | 0.267 | 0.639 | −0.340 | −0.813 | −0.042 | −0.100 | 0.006 | 0.013
4 | CN(C)C(=O)Nc1cccc(-c2ccc(N(C)C)cc2)c1 [Atglistatin] | 0.069 | 0.604 | 0.135 | 1.176 | 0.070 | 0.613 | −0.016 | −0.142 | 0.028 | −0.035 | 0.026 | 0.012 | 0.057 | 0.137 | 0.004 | 0.009 | −0.045 | −0.108 | −0.431 | −1.031
5 | CC(C)c1c(C(=O)Nc2ccccc2)c(-c2ccccc2)c(-c2ccc(F)cc2)n1CC[C@@H](O)C[C@@H](O)CC(=O)[O-].CC(C)c1c(C(=O)Nc2ccccc2)c(-c2ccccc2)c(-c2ccc(F)cc2)n1CC[C@@H](O)C[C@@H](O)CC(=O)[O-].[Ca+2] [Atorvastatin Calcium] | −0.009 | −0.077 | 0.007 | 0.062 | −0.247 | −2.148 | −0.235 | −2.045 | 0.022 | −0.062 | −0.354 | −0.305 | −0.129 | −0.309 | −0.348 | −0.831 | −1.085 | −2.591 | −1.583 | −3.780
